Columns and labels:
Mu-type opioid receptor = Mu-type opioid receptor (Homo sapiens, UniProt P35372); test: Tested in vitro for binding affinity against mu opioid receptor
[1] = biological target: T1, Kappa-type opioid receptor (Homo sapiens, UniProt P41145); test: Tested in vitro for binding affinity against Opioid receptor kappa 1
[2] = biological target: T1, Kappa-type opioid receptor; test: Ratio of binding affinity against kappa opioid receptor to binding affinity against mu opioid receptor

T1 sequence (P41145 whole entry): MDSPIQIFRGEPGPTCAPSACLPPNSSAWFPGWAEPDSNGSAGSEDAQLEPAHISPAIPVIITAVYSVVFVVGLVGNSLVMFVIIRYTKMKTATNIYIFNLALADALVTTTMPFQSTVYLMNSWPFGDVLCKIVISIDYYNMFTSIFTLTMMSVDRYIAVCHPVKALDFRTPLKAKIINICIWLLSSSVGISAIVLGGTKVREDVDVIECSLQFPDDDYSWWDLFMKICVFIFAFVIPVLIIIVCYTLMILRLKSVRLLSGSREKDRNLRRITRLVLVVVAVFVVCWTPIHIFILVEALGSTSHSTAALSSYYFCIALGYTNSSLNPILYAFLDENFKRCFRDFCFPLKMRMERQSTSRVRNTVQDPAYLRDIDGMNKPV
Sequence of Mu-type opioid receptor (P35372 whole entry): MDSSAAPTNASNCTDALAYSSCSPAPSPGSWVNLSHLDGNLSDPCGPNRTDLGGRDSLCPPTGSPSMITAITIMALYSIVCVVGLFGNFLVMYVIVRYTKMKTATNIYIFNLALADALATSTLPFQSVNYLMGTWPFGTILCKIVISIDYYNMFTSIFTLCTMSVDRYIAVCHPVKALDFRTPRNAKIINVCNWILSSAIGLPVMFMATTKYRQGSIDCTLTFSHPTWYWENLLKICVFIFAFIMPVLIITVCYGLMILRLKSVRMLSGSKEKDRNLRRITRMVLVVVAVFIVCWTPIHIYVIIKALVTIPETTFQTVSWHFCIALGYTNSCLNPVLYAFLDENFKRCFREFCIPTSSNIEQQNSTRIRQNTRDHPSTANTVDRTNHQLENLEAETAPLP

## CC[C@]12CCN(CC3CC3)[C@H](C(=O)c3ccc(O)cc31)[C@@H]2C
Mu-type opioid receptor
  Ki: 1.02 nM

## O=C1Cc2cccc(c2)OCCCCNCCN1
Mu-type opioid receptor
  Ki: > 10000 nM
[1]
  Ki: > 10000 nM

## O=C(Cc1cccc2occc12)NCC12CCCN1CCC2
[2]
  Ratio: 3.5
Mu-type opioid receptor
  Ki: 3350 nM
[1]
  Ki: 940 nM

## CN(C(=O)Cc1c(OCCN2CCCC2)ccc2ccccc12)C1CCCCC1
[2]
  Ratio: > 60
Mu-type opioid receptor
  Ki: > 10000 nM
[1]
  Ki: 160 nM

— ChEMBL document CHEMBL1126961, “The design and synthesis of kappa opioid ligands based on a binding model for kappa agonists” (Bioorg Med Chem Lett, 1993)
